“And” between values parts separate entries of the source, which are not always exact repeats. Equal values may be shown once.
Experiment: RSV-A Assay: The description is Japanese.
With `O=C1Nc2ccccc2C(c2ccccc2)=N[C@H]1Nc1nnc(-c2nc(C(F)(F)F)sc2N2CCO[C@H]3C[C@H]32)o1` the EC50 was > 0.8 µM.
With `O=C1Nc2ccccc2C(c2ccccc2)=N[C@H]1Nc1nnc(-c2nc(C(F)(F)F)sc2N2CCO[C@@H]3C[C@@H]32)o1` the EC50 was > 0.8 µM.
With `O=C1Nc2ccccc2C(c2ccccc2)=N[C@@H]1Nc1nnc(-c2nc(C3(C(F)(F)F)CCC3)sc2N2CCOCC2)o1` the EC50 was < 0.4 µM.
For `O=C1Nc2ccccc2C(c2ccccc2)=N[C@@H]1Nc1nnc(-c2cn(CC(F)(F)F)nc2N2CCOCC2)o1`, the EC50 was > 0.8 µM.
In the case of `O=C1Nc2ccccc2C(c2ccccc2)=N[C@@H]1Nc1nnc(-c2nc(C(F)(F)F)sc2N2CCO[C@H]3C[C@H]32)o1`, the EC50 is reported as < 0.4 µM.
For `O=C1Nc2ccccc2C(c2ccccc2)=N[C@@H]1Nc1nnc(-c2nc(C(F)(F)F)sc2N2CCO[C@@H]3C[C@@H]32)o1`, the EC50 was > 0.8 µM.
With `O=C1Nc2ccccc2C(c2ccccc2)=N[C@@H]1Nc1nnc(-c2ncc(C(F)(F)F)cc2N2CCOCC2)o1` [ZELICAPAVIR] the EC50 was < 400 nM (2×) and > 800 nM.

Reference: ChEMBL document CHEMBL5729210, “Benzodiazepine derivatives as RSV inhibitors” (2022)
